Among the data in PubChem BioAssay (NCI) are GI50 and TGI values, retold here.

“And” between values parts separate entries of the source, which are not always exact repeats. Identical values can stand only once.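 48-hour exposure; five concentrations; linearly interpolated endpoints. GI50 = concentration required for 50% inhibition of growth. TGI denotes the concentration required for complete inhibition of growth.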

Test systems include SNB-19 CNS; A498 renal; U251 CNS; SK-MEL-2 melanoma; NCI-H226 lung; SF-295 CNS; SF-268 CNS; IGROV1 ovarian; SNB-75 CNS; TK-10 renal.
Holding throughout (experiment): growth of human tumour cells (NCI), 48 h

As for `CCOc1cc(/C=N\Nc2nnc(C)n2N)c(C)cc1N(CCCl)CCCl`, the GI50 with SNB-19 CNS was 1.28 µM; in the experiment with A498 renal it was 0.212 µM; in the experiment on U251 CNS it was 0.747 µM; in the experiment on SK-MEL-2 melanoma, 2.11 µM; in the experiment with NCI-H226 lung it was 1.54 µM; with SF-295 CNS, 1.13 µM. Also, the GI50 with SF-268 CNS is 1.97 µM; in the experiment on IGROV1 ovarian it was 1.96 µM; in the experiment on SNB-75 CNS it was 0.692 µM; with TK-10 renal, 1.97 µM. The TGI in the experiment with SNB-19 CNS was over 45.7 µM; in the experiment with A498 renal, 2.41 µM; in the experiment on U251 CNS it was over 28.5 µM; in the experiment with SK-MEL-2 melanoma it was 5.33 µM; with NCI-H226 lung, 14.7 µM; in the experiment on SF-295 CNS, 6.23 µM. Moreover, the TGI in the experiment on SF-268 CNS is over 92.6 µM; in the experiment on IGROV1 ovarian it was over 100 µM; in the experiment on SNB-75 CNS it was 6.5 µM; with TK-10 renal, 51.4 µM.

Turning to `C=CC(=O)Nc1cc2c(Nc3ccc(F)c(Cl)c3)ncnc2cc1OCCCN1CCOCC1`, the GI50 in the experiment with SNB-19 CNS was 2.53 µM and > 6.7 µM; in the experiment with A498 renal it was 0.357 µM and 0.681 µM; in the experiment with U251 CNS, 3.57 µM and > 6.22 µM; in the experiment with SK-MEL-2 melanoma it was 1.96 µM and 2.17 µM; in the experiment on NCI-H226 lung, 2.08 µM and > 6.11 µM; in the experiment on SF-295 CNS, 4.12 µM. Also, the GI50 with SF-268 CNS is 1.77 µM and 3.47 µM; with IGROV1 ovarian, 0.993 µM and 0.284 µM; in the experiment on SNB-75 CNS it was 0.47 µM and 1.06 µM; in the experiment on TK-10 renal, < 0.01 µM and 0.00217 µM. Further, the TGI was 14.7 µM and > 10 µM in the experiment with SNB-19 CNS; 2.51 µM and 5.15 µM in the experiment on A498 renal; 14.9 µM and > 10 µM in the experiment on U251 CNS; 3.79 µM and > 6.51 µM in the experiment with SK-MEL-2 melanoma; 5.59 µM and > 10 µM with NCI-H226 lung; 17.4 µM and > 10 µM in the experiment on SF-295 CNS. Further, the TGI is 5.13 µM and > 10 µM in the experiment with SF-268 CNS; 3.26 µM and 2.88 µM in the experiment on IGROV1 ovarian; 4.54 µM and > 7.95 µM in the experiment with SNB-75 CNS; 9.6 µM and 6.78 µM with TK-10 renal.

Regarding `COC1C2C=CC(C2)[C@H]1[N+](=O)[O-]` (some centres undefined), the TGI with SNB-19 CNS, in the experiment on A498 renal, in the experiment with U251 CNS, in the experiment on SK-MEL-2 melanoma, in the experiment on NCI-H226 lung and in the experiment on SF-295 CNS was over 100 µM throughout. Moreover, the TGI with SF-268 CNS, with IGROV1 ovarian, in the experiment on SNB-75 CNS and in the experiment on TK-10 renal was over 100 µM throughout.

`O=C(O)c1ccc2c(c1)CCCC(c1ccc(Cl)cc1Cl)=C2c1ccc(O[C@H]2CCN(CCCF)C2)cc1`: the GI50 was 12 µM in the experiment with SNB-19 CNS; 11.5 µM in the experiment with A498 renal; 10.1 µM in the experiment on U251 CNS; 14.3 µM in the experiment on SK-MEL-2 melanoma; 10.4 µM with NCI-H226 lung; 7.86 µM in the experiment on SF-295 CNS. In addition, the GI50 in the experiment with SF-268 CNS is 12.1 µM; with IGROV1 ovarian, 13.8 µM; in the experiment with SNB-75 CNS, 12.1 µM; with TK-10 renal, 13.4 µM. In addition, the TGI with SNB-19 CNS was 26.4 µM; in the experiment with A498 renal, 24.6 µM; with U251 CNS, 25.2 µM; in the experiment with SK-MEL-2 melanoma it was 30.6 µM; in the experiment on NCI-H226 lung it was 38.8 µM; with SF-295 CNS it was 20.5 µM. Further, the TGI in the experiment on SF-268 CNS worked out at 28.5 µM; with IGROV1 ovarian, 35.6 µM; in the experiment on SNB-75 CNS, 25.3 µM; in the experiment on TK-10 renal it was 27.6 µM.

For `COc1cc2ncnc(Nc3ccc(F)c(Cl)c3)c2cc1NC(=O)/C=C/CN1CCCCC1`, the GI50 in the experiment with SNB-19 CNS is 2.04 µM and 1.86 µM; in the experiment on A498 renal, 0.812 µM and 0.556 µM; in the experiment with U251 CNS, 1.46 µM and 1.87 µM; in the experiment with SK-MEL-2 melanoma it was 1.81 µM and 1.72 µM; in the experiment with NCI-H226 lung, 2.91 µM and 4.52 µM; in the experiment on SF-295 CNS it was 1.78 µM and 2.44 µM. Besides, the GI50 was 1.5 µM and 1.42 µM in the experiment with SF-268 CNS; 1.03 µM and 1.25 µM in the experiment with SNB-75 CNS; < 0.01 µM and 0.00151 µM in the experiment with TK-10 renal. In addition, the TGI in the experiment on SNB-19 CNS was 17 µM and > 10 µM; in the experiment with A498 renal it was 4.04 µM and 3.71 µM; with U251 CNS, 3.26 µM and 4.27 µM; with SK-MEL-2 melanoma it was 3.52 µM and 3.39 µM; in the experiment with NCI-H226 lung, 19.3 µM and > 10 µM; in the experiment with SF-295 CNS it was 4.03 µM and > 7.08 µM. The TGI in the experiment with SF-268 CNS is 3.99 µM and 4.73 µM; with IGROV1 ovarian, 2.96 µM and 2.07 µM; in the experiment on SNB-75 CNS, 6 µM and 6.47 µM; in the experiment on TK-10 renal it was 1.68 µM and 2.3 µM.

On to `COc1cc2c(=O)n(CCN)c3c4cc5c(cc4ccc3c2cc1OC)OCO5`, for which the GI50 in the experiment on SNB-19 CNS was 0.414 µM; with A498 renal, 1.24 µM; with U251 CNS, 0.287 µM; in the experiment with SK-MEL-2 melanoma it was 3.69 µM; in the experiment on NCI-H226 lung, 1.43 µM; in the experiment on SF-295 CNS, 0.306 µM. Moreover, the GI50 is 0.423 µM in the experiment with SF-268 CNS, 0.467 µM with IGROV1 ovarian, 0.892 µM in the experiment on SNB-75 CNS and 1.62 µM in the experiment on TK-10 renal. Moreover, the TGI in the experiment with SNB-19 CNS amounted to 1.97 µM; with A498 renal, 2.64 µM; with U251 CNS, 1.75 µM; in the experiment with SK-MEL-2 melanoma it was 16.5 µM; in the experiment with NCI-H226 lung, 3.59 µM; with SF-295 CNS, 4.08 µM. Also, the TGI was determined as 2.14 µM with SF-268 CNS, 2.07 µM with IGROV1 ovarian, 3.35 µM with SNB-75 CNS and 3.28 µM in the experiment on TK-10 renal.

With `CC1C(=O)OCC2=CCN3CCC(OC(=O)C(C)C1(C)O)C23` (centres undefined), the TGI in the experiment with SNB-19 CNS, with A498 renal, with U251 CNS, in the experiment with SK-MEL-2 melanoma, with NCI-H226 lung and with SF-295 CNS was over 100 µM throughout. The TGI in the experiment on SF-268 CNS, in the experiment with IGROV1 ovarian, with SNB-75 CNS and in the experiment with TK-10 renal was over 100 µM each time.

With `CN1CC[C@]2(C)c3ccc(O)cc3CC3CCCC1C32C` (some centres undefined), the TGI in the experiment with SNB-19 CNS, in the experiment with A498 renal, in the experiment on U251 CNS, in the experiment on SK-MEL-2 melanoma, with NCI-H226 lung and in the experiment on SF-295 CNS was over 100 µM each time. Further, the TGI in the experiment on SF-268 CNS, with IGROV1 ovarian, in the experiment on SNB-75 CNS and in the experiment with TK-10 renal was over 100 µM throughout.

Take `COc1cc(/C=C2\C(=O)Nc3ccc(N(C)C)cc32)cc(OC)c1OC`: the GI50 in the experiment on SNB-19 CNS was 3.67 µM; in the experiment on A498 renal it was 4.67 µM; in the experiment on U251 CNS, 3.1 µM; in the experiment with SK-MEL-2 melanoma it was 2.77 µM; with NCI-H226 lung, 14.2 µM; with SF-295 CNS it was 3.16 µM. For the same molecule, the GI50 in the experiment with SF-268 CNS is 3.92 µM; with IGROV1 ovarian it was 1.5 µM; with SNB-75 CNS, 1.74 µM; with TK-10 renal, 6.42 µM. Also, the TGI is over 100 µM with SNB-19 CNS; over 100 µM with A498 renal; 14.6 µM in the experiment with U251 CNS; 8.31 µM in the experiment with SK-MEL-2 melanoma; over 100 µM in the experiment with NCI-H226 lung; over 100 µM in the experiment on SF-295 CNS. Moreover, the TGI in the experiment with SF-268 CNS amounted to 33.1 µM; with IGROV1 ovarian, 5.43 µM; in the experiment on SNB-75 CNS, 6.33 µM; with TK-10 renal, 40.6 µM.
